{"source": "paper PMC9601927", "about": "(Foods, 2022)", "key": {"sGLT1 [1]": {"test_system": "sGLT1", "assay": "Western blot of sGLT1 expression in Caco-2 cells after siRNA transfection and incubation", "assay_type": "cell-based", "method": "Firstly, the cells were washed twice with 1 mL of cold PBS and then lysed in 100 μL of ice-cold RIPA lysis buffer. Western blot analysis was performed following the previous method with minor modifications. Briefly, total protein samples were resolved by SDS-PAGE (8%, 10%, or 12%) and transferred to PVDF membranes blocked with 5% nonfat milk powder in TBST; these were then incubated with 8 μg of primary antibody at a dilution of 1:1000/500 (v/v) overnight at 4 °C. Detection was performed with 10 mL of ECL and oxidizing reagent and equal amounts of HRP-conjugated anti-mouse at a 1:5000 (v/v) dilution rate. To further illustrate the effect of FA-g-CS on the transmembrane transport of ANC, the Caco-2 cells were transfected with siRNA targeted to sGLT1 and GLUT2 (the optimal interference fragments screened by previous tests) and then incubated with FA-g-CS, ANC, or their combinations. Finally, the expressions of sGLT1 and GLUT2 were detected using a Western blot assay."}, "sGLT1 [2]": {"test_system": "sGLT1", "assay": "Immunofluorescence staining of sGLT1 in Caco-2 cells", "assay_type": "cell-based", "settings": "ANC 2.3 × 10^−4 mg/mL or FA-g-CS 9 × 10^−5 mg/mL, 48 h", "method": "(§1) Immunofluorescence staining was carried out to further validate the effect of FA-g-CS/ANC on the expression of sGLT1 and GLUT2. In short, Caco-2 cells were transfected with NC siRNA (negative control), GLUT2-siRNA-2, and sGLT1-siRNA-3; then, they were seeded onto a 4-well slide and chamber (Watson, Kobe, Japan). Subsequently, cells were incubated with 0.09 µg/mL FA-g-CS, 0.23 µg/mL ANC, or their combination at 37 °C for 48 h. Then, they were fixed with 4% paraformaldehyde for 10 min and soaked with 0.5% Triton X-100 in PBS for 15 min. In this study, goat serum was used to avoid nonspecific binding at room temperature. After 30 min of treatments, the cells were incubated with the primary antibody ([…], Santa Cruz Biotechnology, with 1:100 dilutions) at 4 °C overnight, followed by incubation with the secondary antibody (goat anti-mouse IgG1-HRP, Santa Cruz Biotechnology, Shanghai, China, with 1:100 dilutions) for 1 h at 20–37 °C. Nuclear staining was performed with DAPI, and the images were captured with a fluorescence microscope (BX53, Olympus, Tokyo, Japan)."}, "GLUT2": {"test_system": "GLUT2", "assay": "Immunofluorescence staining of GLUT2 in Caco-2 cells", "assay_type": "cell-based", "settings": "ANC 2.3 × 10^−4 mg/mL or FA-g-CS 9 × 10^−5 mg/mL, 48 h", "method": "as §1"}, "[3]": {"assay": "ANC transmembrane transport across Caco-2 cell monolayer (Transwell, HPLC)", "assay_type": "in vitro ADME", "settings": "human, Caco-2", "method": "(§2) In this work, we utilized and slightly modified a procedure from Zou et al. to perform ANC transport studies. Firstly, ANC commercial powder was pre-dissolved in ultra-pure water and phosphate-buffered solution (PBS, pH7.4) was used for FA-g-CS dissolving. Then, pre-warmed phosphate-buffered saline (PBS) was used to wash and equilibrate the Transwell. Subsequently, the transport buffer containing ANC was added to the basolateral (1.5 mL) or the apical (0.5 mL) side of the inserts, while the corresponding volume of transport buffer was added to the receiving container. Samples measuring 50 uL were taken after 1, 2, 3, and 4 h incubation, and the same amount of pre-warmed PBS was replenished immediately. The samples were treated with HCl and frozen until HPLC analysis. The ANC-absorption-enhancing studies with FA-g-CS across Caco-2 cells were conducted using a transport buffer containing FA-g-CS+ANC instead of ANC alone.\n(§3) Transport efficiency (A→B (%)) was calculated according to the following formula: (concentrations of the compound at basolateral side overtime)/(concentrations of the compound at the apical side at zero hours) × 100. The apparent permeability coefficient (Papp) was defined as follows: Papp = (dQ/dt)(1/[AC0]); here, A represents the surface area of the Transwell, C0 represents the compound concentration added in the apical side, and the transport rate of the compound over time is denoted by dQ/dt."}, "Caco-2 cell monolayer": {"test_system": "Caco-2 cell monolayer", "assay": "ANC transmembrane transport across Caco-2 cell monolayer (Transwell, HPLC)", "assay_type": "in vitro ADME", "settings": "for Transport Efficiency A→B (%) with FA-g-CS Co-Treatment: with 5 × 10^−5 mg/mL FA-g-CS; for Concentrations of ANC at the Basolateral Side: apical ANC 0.05 ×10^−3 mg/mL, in presence of 0.05 × 10^−3 mg/mL FA-g-CS", "method": "as §2, §3"}}}
{"compound": "OC[C@H]1O[C@@H](Oc2cc3c(O)cc(O)cc3[o+]c2-c2ccc(O)c(O)c2)[C@H](O)[C@@H](O)[C@@H]1O", "note": "[ANC, Cyanidin-3-glucoside]", "values": [{"measurement": "expression of sGLT1 compared with the blank", "setting": "sGLT1 [1]; cells treated with nonrelated and scrambled siRNA", "value": "significantly elevated"}, {"measurement": "expression level of sGLT1 compared with the blank control", "setting": "sGLT1 [1]; cells treated with siRNA transfection", "value": "significantly increased"}, {"measurement": "increased sGLT1 expression", "setting": "sGLT1 [1]; siRNA-transfected Caco-2 cells incubated with compounds (abstract)", "value": "< 60", "unit": "%"}, {"measurement": "protein level of sGLT1 (immunofluorescence) compared with the control cells", "setting": "sGLT1 [2]", "value": "increased"}, {"measurement": "protein level of GLUT2 (immunofluorescence) compared with the control cells", "setting": "GLUT2", "value": "increased"}, {"measurement": "Papp A→B at 4 h, 0.05 ×10^−3 mg/mL", "setting": "[3]; ANC 0.05 ×10^−3 mg/mL, 4 h", "value": "0.491 ± 0.058", "unit": "×10⁻⁶ cm/s"}, {"measurement": "Papp B→A at 4 h, 0.05 ×10^−3 mg/mL", "setting": "[3]; ANC 0.05 ×10^−3 mg/mL, 4 h", "value": "0.378 ± 0.048", "unit": "×10⁻⁶ cm/s"}, {"measurement": "efflux ratio at 4 h, 0.05 ×10^−3 mg/mL", "setting": "[3]; ANC 0.05 ×10^−3 mg/mL, 4 h, read-out: Papp (B→A)/ Papp (A→B)", "value": 0.77}, {"measurement": "Papp A→B at 4 h, 0.1 ×10^−3 mg/mL", "setting": "[3]; ANC 0.10 ×10^−3 mg/mL, 4 h", "value": "0.961 ± 0.048", "unit": "×10⁻⁶ cm/s"}, {"measurement": "Papp B→A at 4 h, 0.1 ×10^−3 mg/mL", "setting": "[3]; ANC 0.10 ×10^−3 mg/mL, 4 h", "value": "0.719 ± 0.098", "unit": "×10⁻⁶ cm/s"}, {"measurement": "efflux ratio at 4 h, 0.1 ×10^−3 mg/mL", "setting": "[3]; ANC 0.10 ×10^−3 mg/mL, 4 h, read-out: Papp (B→A)/ Papp (A→B)", "value": 0.75}, {"measurement": "Papp A→B at 4 h, 0.15 ×10^−3 mg/mL", "setting": "[3]; ANC 0.15 ×10^−3 mg/mL, 4 h", "value": "1.5 ± 0.523", "unit": "×10⁻⁶ cm/s"}, {"measurement": "Papp B→A at 4 h, 0.15 ×10^−3 mg/mL", "setting": "[3]; ANC 0.15 ×10^−3 mg/mL, 4 h", "value": "1.94 ± 0.908", "unit": "×10⁻⁶ cm/s"}, {"measurement": "efflux ratio at 4 h, 0.15 ×10^−3 mg/mL", "setting": "[3]; ANC 0.15 ×10^−3 mg/mL, 4 h, read-out: Papp (B→A)/ Papp (A→B)", "value": 1.29}, {"measurement": "Papp A→B at 4 h, 0.2 ×10^−3 mg/mL", "setting": "[3]; ANC 0.20 ×10^−3 mg/mL, 4 h", "value": "1.12 ± 0.108", "unit": "×10⁻⁶ cm/s"}, {"measurement": "Papp B→A at 4 h, 0.2 ×10^−3 mg/mL", "setting": "[3]; ANC 0.20 ×10^−3 mg/mL, 4 h", "value": "1.48 ± 0.048", "unit": "×10⁻⁶ cm/s"}, {"measurement": "efflux ratio at 4 h, 0.2 ×10^−3 mg/mL", "setting": "[3]; ANC 0.20 ×10^−3 mg/mL, 4 h, read-out: Papp (B→A)/ Papp (A→B)", "value": 1.32}, {"measurement": "Papp at 4 h", "setting": "[3]; ANC alone, overall statement", "value": "< 1", "unit": "×10⁻⁶ cm/s"}, {"measurement": "Transport Efficiency A→B (%) with FA-g-CS Co-Treatment", "setting": "Caco-2 cell monolayer; ANC 0.05 ×10^−3 mg/mL, 4 h", "value": 1, "unit": "%"}, {"measurement": "Transport Efficiency A→B (%) without FA-g-CS", "setting": "Caco-2 cell monolayer; ANC 0.05 ×10^−3 mg/mL, 4 h", "value": 0.81, "unit": "%"}, {"measurement": "Transport Efficiency A→B (%) with FA-g-CS Co-Treatment", "setting": "Caco-2 cell monolayer; ANC 0.10 ×10^−3 mg/mL, 4 h", "value": 2.1, "unit": "%"}, {"measurement": "Transport Efficiency A→B (%) without FA-g-CS", "setting": "Caco-2 cell monolayer; ANC 0.10 ×10^−3 mg/mL, 4 h", "value": 1.15, "unit": "%"}, {"measurement": "Transport Efficiency A→B (%) with FA-g-CS Co-Treatment", "setting": "Caco-2 cell monolayer; ANC 0.15 ×10^−3 mg/mL, 4 h", "value": 2.3, "unit": "%"}, {"measurement": "Transport Efficiency A→B (%) without FA-g-CS", "setting": "Caco-2 cell monolayer; ANC 0.15 ×10^−3 mg/mL, 4 h", "value": 1.18, "unit": "%"}, {"measurement": "Transport Efficiency A→B (%) with FA-g-CS Co-Treatment", "setting": "Caco-2 cell monolayer; ANC 0.20 ×10^−3 mg/mL, 4 h", "value": 1.65, "unit": "%"}, {"measurement": "Transport Efficiency A→B (%) without FA-g-CS", "setting": "Caco-2 cell monolayer; ANC 0.20 ×10^−3 mg/mL, 4 h", "value": 0.96, "unit": "%"}, {"measurement": "Concentrations of ANC at the Basolateral Side", "setting": "Caco-2 cell monolayer; 1 h", "value": "0.0003 ± 0.00001", "unit": "b ×10^−3 mg/mL"}, {"measurement": "Concentrations of ANC at the Basolateral Side", "setting": "Caco-2 cell monolayer; 2 h", "value": "0.0004 ± 0.00001", "unit": "c ×10^−3 mg/mL"}, {"measurement": "Concentrations of ANC at the Basolateral Side", "setting": "Caco-2 cell monolayer; 3 h", "value": "0.0004 ± 0.00001", "unit": "c ×10^−3 mg/mL"}, {"measurement": "Concentrations of ANC at the Basolateral Side", "setting": "Caco-2 cell monolayer; 4 h", "value": "0.0005 ± 0.00001", "unit": "d ×10^−3 mg/mL"}]}
